The results in this text go back to the supplement of paper PMC6580486.

A value given as a limit tells only on which side of the number the result lay.

Experiment [1] concerns PCB490-3 (human epithelioid sarcoma primary culture). As to the method: (§1)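 Roche open-access kinase inhibitor screen (223 compounds) on human epithelioid sarcoma primary cultures from three spatially distinct regions of tumor PCB490. 384-well plates, 72 h, CellTiter-Glo viability; IC50 by Hill curve fit. 100000 nM = no IC50 reached. Compound ids carry a plate-well prefix, which is stripped.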
The test system of experiment [2] is PCB490-4 (human epithelioid sarcoma primary culture). The procedure: as §1
In experiment [3] the test system is PCB490-5 (human epithelioid sarcoma primary culture). The procedure: as §1

As for `Cn1cc(C2=C(c3cn(CCCN)c4ccccc34)C(=O)NC2=O)c2ccccc21`, the IC50 cell viability in experiment [1], in experiment [2] and in experiment [3] was above 100 µM throughout.
For `Cn1c(=O)c(Oc2ccc(F)cc2F)cc2cnc(N[C@H]3CCOC3)nc21`, the IC50 cell viability in experiment [1], in experiment [2] and in experiment [3] was above 100 µM each time.
With `Cc1[nH]nc2c1N=C(c1ccccc1Cl)c1cc([N+](=O)[O-])ccc1N2`, the IC50 cell viability in experiment [1], in experiment [2] and in experiment [3] was above 100 µM each time.
Consider `CNCC#Cc1c(F)ccc2c1/C(=C/c1[nH]ccc1OC)C(=O)N2`, for which the IC50 cell viability was determined as 26.8 µM in experiment [1], 20.7 µM in experiment [2] and 19.5 µM in experiment [3].
For `O=c1[nH]c2nc(NC3CCOCC3)ncc2cc1Oc1ccc(F)cc1F`, the IC50 cell viability in experiment [1], in experiment [2] and in experiment [3] was above 100 µM throughout.
As to `COc1cccc(C2=C(c3cn(C)c4c(C)cccc34)C(=O)NC2=O)c1`, the IC50 cell viability in experiment [1], in experiment [2] and in experiment [3] was above 100 µM in each case.
In the case of `Cn1c(=O)c(Oc2ccc(F)cc2F)cc2cnc(NCC(C)(C)O)nc21`, the IC50 cell viability in experiment [1], in experiment [2] and in experiment [3] was above 100 µM in each case.
For `Cn1cc(C2=C(c3cn(C)c4ccccc34)C(=O)NC2=O)c2ccccc21`, the IC50 cell viability in experiment [1], in experiment [2] and in experiment [3] was above 100 µM throughout.
Regarding `CC(=O)N[C@@H](Cc1ccc(OP(=O)(O)O)cc1)C(=O)N[C@H]1CCC(=O)N2CCC[C@@H](C(=O)NC3CCc4ccccc43)N2C1=O` (some centres not stated), the IC50 cell viability in experiment [1], in experiment [2] and in experiment [3] was above 100 µM in each case.
Consider `N=C1N=C(N)/C(=C/c2ccc3ncccc3c2)S1`, for which the IC50 cell viability in experiment [1], in experiment [2] and in experiment [3] was above 100 µM in each case.
With `COc1ccccc1C(=O)c1cnc(NC2CCN(S(C)(=O)=O)CC2)nc1N`, the IC50 cell viability in experiment [1], in experiment [2] and in experiment [3] was above 100 µM throughout.
Consider `Fc1ccc(-c2c(-c3ccncc3)n(CCN3CCOCC3)c3cccnc23)cc1`, for which the IC50 cell viability in experiment [1], in experiment [2] and in experiment [3] was above 100 µM throughout.
For `CS(=O)(=O)CCCn1c(=O)c(Oc2ccc(F)cc2F)cc2cnc(NC3CCOCC3)nc21`, the IC50 cell viability in experiment [1], in experiment [2] and in experiment [3] was above 100 µM in each case.
As for `C/C(=C1/SC(=NCc2cccs2)NC1=O)c1ccc2ncccc2c1`, the IC50 cell viability in experiment [1], in experiment [2] and in experiment [3] was above 100 µM throughout.
`O=C1NC(=Nc2ccccc2)S/C1=C\c1ccc2ncccc2c1`: the IC50 cell viability in experiment [1], in experiment [2] and in experiment [3] was above 100 µM in each case.
With `Cn1cc(C2=C(c3cccc4ccccc34)C(=O)NC2=O)c2ccccc21`, the IC50 cell viability in experiment [1], in experiment [2] and in experiment [3] was above 100 µM in each case.
Consider `Nc1c(C(=O)c2cccc(-c3cccnc3)c2)cnn1-c1ccc(F)cc1`, for which the IC50 cell viability in experiment [1], in experiment [2] and in experiment [3] was above 100 µM throughout.
`O=C1NC(=NCCc2ccccn2)S/C1=C\c1ccc2ncccc2c1`: the IC50 cell viability in experiment [1], in experiment [2] and in experiment [3] was above 100 µM throughout.
Take `Cn1cc(C2=C(c3c4n(c5ccccc35)CCNC4)C(=O)NC2=O)c2ccccc21`: the IC50 cell viability in experiment [1], in experiment [2] and in experiment [3] was above 100 µM each time.
Take `Cn1cc(C2=C(c3cn(C)c4ccc(Cl)cc34)C(=O)NC2=O)c2ccccc21`: the IC50 cell viability in experiment [1], in experiment [2] and in experiment [3] was above 100 µM in each case.
For the compound `Cn1c(=O)c(Oc2ccccc2)cc2cnc(NC3CCOCC3)nc21`, the IC50 cell viability in experiment [1], in experiment [2] and in experiment [3] was above 100 µM in each case.
For the compound `COc1ccc2c(C3=C(c4cn(C)c5ccccc45)C(=O)NC3=O)cn(C)c2c1`, the IC50 cell viability in experiment [1], in experiment [2] and in experiment [3] was above 100 µM throughout.
In the case of `Nc1c(C(=O)c2cccc(OCCN3CCOCC3)c2)cnn1-c1ccc(F)cc1`, the IC50 cell viability in experiment [1], in experiment [2] and in experiment [3] was above 100 µM each time.
On to `O=c1c(Oc2ccc(F)cc2F)cc2cnc(NC3CCOCC3)nc2n1CCCO`, for which the IC50 cell viability in experiment [1], in experiment [2] and in experiment [3] was above 100 µM each time.
Consider `O=C1NC(=N[C@H](CO)c2ccccc2)S/C1=C\c1ccc2ncccc2c1`, for which the IC50 cell viability in experiment [1], in experiment [2] and in experiment [3] was above 100 µM each time.
As to `CN(C)CC#Cc1cccc(C(=O)c2cnn(-c3ccc(F)cc3)c2N)c1`, the IC50 cell viability in experiment [1], in experiment [2] and in experiment [3] was above 100 µM throughout.
On to `Cn1cc(C2=C(c3cn(C)c4ccc(N)cc34)C(=O)NC2=O)c2ccccc21`, for which the IC50 cell viability in experiment [1], in experiment [2] and in experiment [3] was above 100 µM in each case.
For the compound `O=C1NC(=NCC(CO)c2ccccc2)S/C1=C\c1ccc2ncccc2c1` (configuration not stated), the IC50 cell viability in experiment [1], in experiment [2] and in experiment [3] was above 100 µM each time.
On to `Cn1cc(C2=C(c3cccc(OC[C@H](O)CO)c3)C(=O)NC2=O)c2ccccc21`, for which the IC50 cell viability in experiment [1], in experiment [2] and in experiment [3] was above 100 µM in each case.
In the case of `Cn1cc(C2=C(c3cn(CCCCN)c4ccccc34)C(=O)NC2=O)c2ccccc21`, the IC50 cell viability in experiment [1], in experiment [2] and in experiment [3] was above 100 µM throughout.
As for `O=C1C(c2c[nH]c3ccccc23)=C(c2c[nH]c3ccccc23)C(=O)N1O`, the IC50 cell viability in experiment [1], in experiment [2] and in experiment [3] was above 100 µM in each case.
With `Cn1c(=O)c(Cc2ccc(F)cc2F)cc2cnc(NC3CCOCC3)nc21`, the IC50 cell viability in experiment [1], in experiment [2] and in experiment [3] was above 100 µM each time.
With `Cn1cc(C2=C(c3cn(CCCN=C(N)N)c4ccccc34)C(=O)NC2=O)c2ccccc21`, the IC50 cell viability in experiment [1], in experiment [2] and in experiment [3] was above 100 µM in each case.
As for `Nc1c(C(=O)c2cccc(-c3ccncc3)c2)cnn1-c1ccc(F)cc1F`, the IC50 cell viability in experiment [1], in experiment [2] and in experiment [3] was above 100 µM in each case.
For the compound `Cn1cc(C2=C(c3cn(C)c4cc(C(=O)O)ccc34)C(=O)NC2=O)c2ccccc21`, the IC50 cell viability in experiment [1], in experiment [2] and in experiment [3] was above 100 µM throughout.
`Cn1cc(C2=C(c3cccc(NCC(O)CO)c3)C(=O)NC2=O)c2cc(Cl)ccc21` (configuration not stated): the IC50 cell viability in experiment [1] was above 100 µM; in experiment [2], 2 µM; in experiment [3], 2.34 µM.
Take `Cn1cc(C2=C(c3ccc(OCC(O)CO)cc3)C(=O)NC2=O)c2ccccc21` (configuration not stated): the IC50 cell viability in experiment [1], in experiment [2] and in experiment [3] was above 100 µM each time.
As for `O=C1NC(=NCCc2cccc(F)c2)S/C1=C\c1ccc2ncccc2c1`, the IC50 cell viability in experiment [1], in experiment [2] and in experiment [3] was above 100 µM each time.
`Cn1cc(C2=C(c3ccc4ccccc4c3)C(=O)NC2=O)c2ccccc21`: the IC50 cell viability in experiment [1], in experiment [2] and in experiment [3] was above 100 µM in each case.
For the compound `COc1cc[nH]c1/C=C1\C(=O)Nc2ccc(F)c(I)c21`, the IC50 cell viability in experiment [1], in experiment [2] and in experiment [3] was above 100 µM throughout.
On to `CC(C)Nc1ncc2cc(Oc3ccc(F)cc3F)c(=O)n(C)c2n1`, for which the IC50 cell viability in experiment [1], in experiment [2] and in experiment [3] was above 100 µM in each case.
In the case of `Nc1[nH]nc2nc(-c3cccs3)cc(C(F)(F)F)c12`, the IC50 cell viability in experiment [1], in experiment [2] and in experiment [3] was above 100 µM each time.
Take `C[C@H](O)CNc1cc(-c2[nH]c3cccnc3c2-c2ccc(F)cc2)ccn1`: the IC50 cell viability in experiment [1], in experiment [2] and in experiment [3] was above 100 µM each time.
Consider `CC(CO)Nc1cc(-c2[nH]c3cccnc3c2-c2ccc(F)cc2)ccn1` (configuration not stated), for which the IC50 cell viability in experiment [1], in experiment [2] and in experiment [3] was above 100 µM throughout.
`O=C1NC(=NCCCc2ccccc2)S/C1=C\c1ccc2ncccc2c1`: the IC50 cell viability in experiment [1], in experiment [2] and in experiment [3] was above 100 µM throughout.
As for `Cc1c(C2=C(c3cn(C)c4ccccc34)C(=O)NC2=O)c2ccccc2n1C`, the IC50 cell viability in experiment [1], in experiment [2] and in experiment [3] was above 100 µM each time.
`Cn1cc(C2=C(Sc3ccccc3)C(=O)NC2=O)c2ccccc21`: the IC50 cell viability in experiment [1], in experiment [2] and in experiment [3] was above 100 µM each time.
Take `Cn1cc(C2=C(c3cn(C)c4cc(C(N)=O)ccc34)C(=O)NC2=O)c2ccccc21`: the IC50 cell viability in experiment [1], in experiment [2] and in experiment [3] was above 100 µM in each case.
`COc1ccccc1CN=C1NC(=O)/C(=C/c2ccc3ncccc3c2)S1`: the IC50 cell viability in experiment [1], in experiment [2] and in experiment [3] was above 100 µM in each case.
